Results taken from ChEMBL document CHEMBL5226289, “Discovery of natural anti-inflammatory alkaloids: Potential leads for the drug discovery for the treatment of inflammation” (Eur J Med Chem, 2021).
Residues, ends and D or L forms follow the SMILES beside them. *: point of attachment. Cbz = O=C(OCc1ccccc1)*

System: Mus musculus
Test: Antiinflammatory activity in carrageenan-induced peritoneal Swiss albino mouse model assessed as decrease in number of leukocyte cells at 100 umol/kg, po pre-treated for 30 mins followed by carrageenan induction and measured after 4 hrs relative to control
Format: functional
Parameters: scale not given: the % may be the effect or the level left
Settings: dose 100 µmol/kg, time 4.5 hrs

Structure (SMILES)	Activity
COc1ccc2c(c1)c(CC(=O)O)c(C)n2C(=O)c1ccc(Cl)cc1 [INDOMETHACIN]	72.1%

System: RAW264.7
Test: Antiinflammatory activity against mouse RAW264.7 cells assessed as inhibition of cell growth
Format: functional, cell-based
Settings: not given

Structure (SMILES)	IC50
Cc1ccc(-c2cc(C(F)(F)F)nn2-c2ccc(S(N)(=O)=O)cc2)cc1 [CELECOXIB]	34.3 µM

System: RAW264.7
Test: Inhibition of NO production in LPS-stimulated mouse RAW264.7 cells incubated for 24 hrs by Griess reagent-based assay
Format: functional, cell-based
Settings: RAW264.7, 24 h

IC50	Structure (SMILES)
1.3 µM	Cc1cncc2c1CC1c3[nH]c4ccccc4c3CCN1C2=O (stereo unspecified)
1.6 µM	C=Cc1cncc2c1CC1c3[nH]c4ccccc4c3CCN1C2=O (stereo unspecified)
2.4 µM	C/C=C1/CN2CC[C@@H]1C(=O)c1[nH]c3ccc(OC)cc3c1C2
3.4 µM	C[C@]12CCC(=O)C=C1CC[C@@H]1[C@@H]2[C@@H](O)C[C@@]2(C)[C@H]1CC[C@]2(O)C(=O)CO [HYDROCORTISONE]
9.1 µM	O=C1C=CC2=NC=CC3c4ccccc4N1C23 (stereo unspecified)
15.1 µM	C[C@@H](O)C1=CC2=NC=CC3c4ccccc4N(C1=O)C23 (stereo partly specified)
0.8 µM	Cc1[nH]c(C=O)c2c1C(=O)N1CCC3(C(=O)Nc4ccccc43)C1C2 (stereo unspecified)
12 µM	O=c1c(CO)ccc2n1CCc1c-2[nH]c2ccccc12
1.39 µM	CO[C@@H]1C=C[C@@]23c4cc5c(cc4C(=O)N(CCc4ccccc4)[C@@H]2C(=O)N(C)[C@H]3C1)OCO5
38.6 µM	CC[C@@H](C)[C@@H](C)C(=O)OC/C=C(\C)C(=O)OC[C@@H]1CCN2CCC[C@H]12
12 µM	O=C1C=CC2=NC=CC3c4cc(O)ccc4N1C23 (stereo unspecified)
7.7 µM	O=C1C=CC2=NC=CC3c4ccc(O)cc4N1C23 (stereo unspecified)
1.39 µM	CC[C@H](C)CN1C(=O)c2cc3c(cc2[C@@]24C=C[C@@H](OC)C[C@@H]2N(C)C(=O)[C@@H]14)OCO3
3.6 µM	C/C=C1\CO[C@H](OC)c2c1cc1n(c2=O)CCc2c-1[nH]c1ccccc21

Structure (SMILES)	IC50
C/C=C(/C)C(=O)O[C@@H]1CC[N+]2([O-])CC=C(COC(=O)[C@](O)(C(C)C)[C@H](C)OC)[C@H]12 (stereo partly specified)	105 µM
N=C(N)NN [PIMAGEDINE]	1.8 µM
O=C(OC[C@@H]1CCN2CCC[C@H]12)c1ccccc1	25.5 µM
CN1CCc2cc3c(c4c2[C@H]1Cc1ccccc1-4)OCO3	1.39 µM
O=C1c2ccccc2-c2c3c(cc4ccnc1c24)OCO3 [LIRIODENINE]	1.39 µM

System: RAW264.7
Test: Antiinflammatory activity in mouse RAW264.7 cells assessed as inhibition of LPS-stimulated iNOS activity preincubated with compound for 24 hrs followed by LPS stimulation for 2 hrs and measured 2 hrs after NADPH addition by fluorescence based assay
Format: functional, cell-based
Settings: not given

IC50	Structure (SMILES)
0.2 µM	CC(C)C[C@@H](C=O)NC(=O)[C@H](CC(C)C)NC(=O)[C@H](CC(C)C)NC(=O)OCc1ccccc1 [MG-132] (Cbz-Leu-Leu-Leu-aldehyde)

System: RAW264.7
Test: Antiinflammatory activity against LPS-stimulated mouse RAW264.7 cells assessed as inhibition of IL-1beta production at 20 uM preincubated for 27 hrs followed by LPS stimulation and measured after 12 hrs by ELISA analysis relative to control
Format: functional
Settings: time 39 hrs

Structure (SMILES)	inhibition at 20 µM
CC1(C)C=Cc2c(ccc3c2NC(=O)[C@@]32C[C@]34NC(=O)[C@]5(CCCN5C3=O)C[C@H]4C2(C)C)O1	> 32.6%
CC1(C)C=Cc2c(ccc3c4c([nH]c23)C(C)(C)[C@@H]2C[C@]35CCCN3C(=O)[C@]2(C4)NC5=O)O1	> 32.6%
CC1(C)C=Cc2c(ccc3c4c(n(S(C)(=O)=O)c23)C(C)(C)[C@@H]2C[C@]35CCCN3C(=O)[C@]2(C4)NC5=O)O1	> 32.6%
C=CC(C)(C)[C@@]1(C[C@@H]2NC(=O)[C@@H]3CCCN3C2=O)C(=O)Nc2c1ccc(O)c2CC=C(C)C	> 32.6%

System: RAW264.7
Test: Antiinflammatory activity against LPS-stimulated mouse RAW264.7 cells assessed as inhibition of TNFalpha production at 20 uM preincubated for 27 hrs followed by LPS stimulation and measured after 12 hrs by ELISA analysis relative to control
Format: functional
Settings: time 39 hrs

Structure (SMILES)	inhibition at 20 µM
CC1(C)C=Cc2c(ccc3c2NC(=O)[C@@]32C[C@]34NC(=O)[C@]5(CCCN5C3=O)C[C@H]4C2(C)C)O1	> 32.6%
CC1(C)C=Cc2c(ccc3c4c([nH]c23)C(C)(C)[C@@H]2C[C@]35CCCN3C(=O)[C@]2(C4)NC5=O)O1	> 32.6%
CC1(C)C=Cc2c(ccc3c4c(n(S(C)(=O)=O)c23)C(C)(C)[C@@H]2C[C@]35CCCN3C(=O)[C@]2(C4)NC5=O)O1	> 32.6%
C=CC(C)(C)[C@@]1(C[C@@H]2NC(=O)[C@@H]3CCCN3C2=O)C(=O)Nc2c1ccc(O)c2CC=C(C)C	> 32.6%

System: RAW264.7
Test: Inhibition of NO production in LPS-stimulated mouse RAW264.7 cells preincubated with compound for 1 hrs followed by LPS stimulation and measured after 24 hrs by Griess reagent-based assay
Format: functional, cell-based
Settings: not given

IC50	Structure (SMILES)
25.2 µM	O=C1CC[C@H]2c3[nH]c4ccc(O)cc4c3CCN12
31.9 µM	O=C1NCCc2c1[nH]c1ccc(O)cc21

System: not listed separately
Test: Inhibition of NO production in LPS-stimulated mouse BV-2 cells preincubated with compound for 1 hrs followed by LPS stimulation and measured after 24 hrs by Griess reagent-based assay
Format: functional, cell-based
Settings: not given

IC50	Structure (SMILES)
4.6 µM	COc1ccc2c(c1)[nH]c1cc(OC)c(C(=O)O)cc12 [CLAUSINE K]
10.9 µM	COc1c(CC=C(C)C)c(C=O)cc2c1[nH]c1cc(O)ccc12
2.1 µM	CO[C@H]1[C@@H]2C[C@]34CCCCCCCCCCn5ccc2c5C(=O)[C@@H]3[C@H]2[C@H](O)CCCCCCCC[N@@+]21C4
1.1 µM	CO[C@H]1[C@@H]2C[C@]34CCCCCCCCCCn5ccc2c5C(=O)[C@@H]3[C@H]2C(O)C/C=C\C/C=C\CCC[N@@+]21C4 (stereo partly specified)
